These results are taken from ChEMBL document CHEMBL1139120, “Discovery of novel phosphorus-containing steroids as selective glucocorticoid receptor antagonist” (Bioorg Med Chem Lett, 2007).

Activity calls are given as the source filed them. No cut-off for these calls is given here. A value given as a limit tells only on which side of the number the result lay.

The test system of one series is A549. In words: Selectivity index, Ratio of IC50 for progesterone receptor expressed in human T47 cells to IC50 for glucocorticoid receptor expressed in human A549 cells.
The next series concerns the target T1, Glucocorticoid receptor (Homo sapiens, UniProt P04150).
T1 sequence (P04150 whole entry): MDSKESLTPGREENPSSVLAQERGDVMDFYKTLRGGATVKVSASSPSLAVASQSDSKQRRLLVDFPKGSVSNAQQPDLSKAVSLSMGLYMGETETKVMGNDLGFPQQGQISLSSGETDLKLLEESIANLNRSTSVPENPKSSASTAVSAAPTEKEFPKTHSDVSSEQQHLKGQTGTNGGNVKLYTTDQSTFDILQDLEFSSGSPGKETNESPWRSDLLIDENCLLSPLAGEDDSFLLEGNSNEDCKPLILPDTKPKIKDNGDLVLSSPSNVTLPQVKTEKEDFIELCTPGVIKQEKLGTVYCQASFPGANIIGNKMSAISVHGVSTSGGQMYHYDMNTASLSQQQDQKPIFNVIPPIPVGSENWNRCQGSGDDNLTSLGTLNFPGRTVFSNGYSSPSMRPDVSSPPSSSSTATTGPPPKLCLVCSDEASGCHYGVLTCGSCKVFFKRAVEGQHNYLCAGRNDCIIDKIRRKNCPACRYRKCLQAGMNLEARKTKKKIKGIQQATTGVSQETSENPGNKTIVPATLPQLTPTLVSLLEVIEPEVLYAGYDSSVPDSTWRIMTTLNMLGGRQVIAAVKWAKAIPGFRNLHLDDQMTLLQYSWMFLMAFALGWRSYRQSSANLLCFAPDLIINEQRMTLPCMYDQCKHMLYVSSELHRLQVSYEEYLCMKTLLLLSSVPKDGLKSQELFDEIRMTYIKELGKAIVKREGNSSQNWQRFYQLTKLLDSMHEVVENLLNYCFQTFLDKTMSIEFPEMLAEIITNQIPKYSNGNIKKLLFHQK
The series is described as follows: Antagonist activity at glucocorticoid receptor expressed in human A549 cells assessed as inhibition of corticoid-induced transcription by glucocorticoid response element-linked luciferase reporter gene assay. The series is classed as functional, cell-based.

The target of another series is T2, Progesterone receptor (Homo sapiens, UniProt P06401).
T2 sequence (P06401 whole entry): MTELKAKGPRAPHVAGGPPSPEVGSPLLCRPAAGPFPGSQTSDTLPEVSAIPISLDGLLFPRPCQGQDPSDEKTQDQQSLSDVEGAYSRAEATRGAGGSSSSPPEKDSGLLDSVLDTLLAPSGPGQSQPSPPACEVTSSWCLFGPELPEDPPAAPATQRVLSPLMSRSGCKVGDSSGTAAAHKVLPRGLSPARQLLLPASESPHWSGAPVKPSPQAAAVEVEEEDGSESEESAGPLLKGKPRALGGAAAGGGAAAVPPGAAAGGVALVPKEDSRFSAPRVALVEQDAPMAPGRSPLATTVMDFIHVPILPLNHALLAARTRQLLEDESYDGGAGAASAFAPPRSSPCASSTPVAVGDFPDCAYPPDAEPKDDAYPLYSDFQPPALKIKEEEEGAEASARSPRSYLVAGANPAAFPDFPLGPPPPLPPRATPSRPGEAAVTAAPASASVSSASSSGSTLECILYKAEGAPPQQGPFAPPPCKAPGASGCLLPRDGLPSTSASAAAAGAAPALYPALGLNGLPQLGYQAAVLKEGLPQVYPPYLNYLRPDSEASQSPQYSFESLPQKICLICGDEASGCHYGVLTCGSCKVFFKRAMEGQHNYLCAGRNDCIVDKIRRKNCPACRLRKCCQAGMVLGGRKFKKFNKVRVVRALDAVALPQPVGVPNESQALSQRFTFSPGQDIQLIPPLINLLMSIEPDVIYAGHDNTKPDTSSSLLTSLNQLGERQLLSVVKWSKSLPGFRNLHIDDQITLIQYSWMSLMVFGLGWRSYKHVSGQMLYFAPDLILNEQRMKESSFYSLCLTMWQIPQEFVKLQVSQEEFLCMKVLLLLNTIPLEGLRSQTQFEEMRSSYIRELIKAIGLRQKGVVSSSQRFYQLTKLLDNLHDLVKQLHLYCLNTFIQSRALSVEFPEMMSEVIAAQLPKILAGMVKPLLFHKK
The series is described as follows: Antagonist activity at progesterone receptor expressed in human T47 cells assessed as blockade of progesterone-induced alkaline phosphatase activity. It is filed as functional, cell-based.

Series [1] in a line: Permeability across Caco-2 cells. The series is classed as ADME, cell-based. As to conditions: human, read-out: permeability.
Series [2] in a line: Cmax in mouse at 2 mg/kg, iv. Set-up: dose 2 mg/kg, route intravenous. The series is classed as ADME, organism-based. As to conditions: in vivo.
Series [3] in a line: Metabolic stability in rabbit microsomes assessed as half life. It is filed as ADME, Oryctolagus cuniculus, Microsome.
Series [4] is described as follows: Half life in mouse at 10 mg/kg, po. The series is classed as ADME, organism-based. On the set-up: dose 10 mg/kg, route oral. To be noted: in vivo.
Series [5] can be described thus: Metabolic stability in rat microsomes assessed as half life. The series is classed as ADME, Microsome.
A short description of series [6]: Metabolic stability in dog microsomes assessed as half life. The series is classed as ADME, Canis lupus familiaris, Microsome.
The nature of series [7]: Half life in mouse at 2 mg/kg, iv. It is filed as ADME, organism-based. On the set-up: dose 2 mg/kg, route intravenous. As to conditions: in vivo.
Series [8] in a line: Tmax in mouse at 2 mg/kg, iv. The series is classed as ADME, organism-based. On the set-up: dose 2 mg/kg, route intravenous. To be noted: in vivo.
A further series has as its system Mus musculus. In words: Decrease in plasma glucose level in po dosed ob/ob mouse after 15 days by OGTT. It is filed as functional, organism-based.
The nature of series [9]: Clearance in mouse at 2 mg/kg, iv. Set-up: dose 2 mg/kg, route intravenous. It is filed as ADME, organism-based. As to conditions: in vivo.
Series [10] can be described thus: Metabolic stability in human microsomes assessed as half life. The series is classed as ADME, Microsome.
Series [11] can be described thus: Tmax in mouse at 10 mg/kg, po. As to conditions: in vivo. It is filed as ADME, organism-based. On the set-up: dose 10 mg/kg, route oral.
Series [12] can be described thus: Cmax in mouse at 10 mg/kg, po. It is filed as ADME, organism-based. Set-up: dose 10 mg/kg, route oral. To be noted: in vivo.
Series [13] in a line: Metabolic stability in monkey microsomes assessed as half life. To be noted: rhesus monkey. The series is classed as ADME, Macaca mulatta, Microsome.
Series [14] in a line: Oral bioavailability in mouse at 10 mg/kg. The series is classed as ADME, organism-based. As to conditions: in vivo.
The target in another series is hERG (KCNH2) (Homo sapiens, UniProt Q12809). The series is described as follows: Inhibition of hERG at 10 uM. The series is classed as toxicity.
Chain of hERG (KCNH2) (Q12809 whole entry): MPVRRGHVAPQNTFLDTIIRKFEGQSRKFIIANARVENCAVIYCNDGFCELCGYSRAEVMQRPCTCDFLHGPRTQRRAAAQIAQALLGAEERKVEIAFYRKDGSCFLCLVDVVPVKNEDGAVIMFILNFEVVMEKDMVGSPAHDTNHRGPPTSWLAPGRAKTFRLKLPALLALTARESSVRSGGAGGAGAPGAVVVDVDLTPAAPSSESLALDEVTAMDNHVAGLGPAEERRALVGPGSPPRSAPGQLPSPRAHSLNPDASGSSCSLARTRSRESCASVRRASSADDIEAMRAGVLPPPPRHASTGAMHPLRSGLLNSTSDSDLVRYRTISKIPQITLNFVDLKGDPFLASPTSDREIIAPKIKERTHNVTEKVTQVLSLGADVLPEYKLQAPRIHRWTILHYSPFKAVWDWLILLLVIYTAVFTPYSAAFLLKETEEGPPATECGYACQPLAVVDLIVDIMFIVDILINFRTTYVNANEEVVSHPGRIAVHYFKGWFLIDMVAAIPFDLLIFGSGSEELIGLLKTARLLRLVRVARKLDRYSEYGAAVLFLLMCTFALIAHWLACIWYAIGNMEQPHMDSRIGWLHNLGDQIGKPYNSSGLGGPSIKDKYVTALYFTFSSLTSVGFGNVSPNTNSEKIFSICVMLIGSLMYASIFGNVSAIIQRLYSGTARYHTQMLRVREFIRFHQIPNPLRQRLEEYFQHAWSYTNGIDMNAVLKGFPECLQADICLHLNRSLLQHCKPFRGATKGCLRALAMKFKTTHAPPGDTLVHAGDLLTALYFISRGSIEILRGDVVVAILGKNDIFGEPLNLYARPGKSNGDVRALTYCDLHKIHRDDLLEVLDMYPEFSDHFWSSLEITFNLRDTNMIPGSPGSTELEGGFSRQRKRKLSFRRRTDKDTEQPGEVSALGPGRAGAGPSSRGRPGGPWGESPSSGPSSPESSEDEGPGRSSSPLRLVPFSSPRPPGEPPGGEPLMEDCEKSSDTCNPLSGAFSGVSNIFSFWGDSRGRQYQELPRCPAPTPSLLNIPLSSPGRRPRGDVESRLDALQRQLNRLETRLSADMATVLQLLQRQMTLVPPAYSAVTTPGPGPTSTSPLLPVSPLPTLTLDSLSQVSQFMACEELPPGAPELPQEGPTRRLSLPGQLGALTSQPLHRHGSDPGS
The nature of series [15]: Metabolic stability in mouse microsomes assessed as half life. It is filed as ADME, Microsome.

Turning to `CC#C[C@]1(O)CC[C@H]2[C@@H]3CCC4=CC(=O)CCC4=C3[C@@H](c3ccc(P(=O)(c4ccccc4)c4ccccc4)cc3)C[C@@]21C`, the Ratio in the series with A549 worked out at 127. Also, on Glucocorticoid receptor, the inhibitory constant (Ki) stood at 3 nM. In addition, the IC50 on Progesterone receptor was 381 nM.

Take `CC#C[C@]1(O)CC[C@H]2[C@@H]3CCC4=CC(=O)CCC4=C3[C@@H](c3ccc(P(=O)(OCC)OCC)cc3)C[C@@]21C`: in the series on A549, the Ratio was determined as 15.7. Besides, the Ki on Glucocorticoid receptor amounted to 9 nM. For the same compound, the concentration for half-maximal inhibition (IC50) on Progesterone receptor came to 141 nM.

Consider `C=C1CCO[C@]12CC[C@H]1[C@@H]3CCC4=CC(=O)CCC4=C3[C@@H](c3ccc(P(=O)(OCC)OCC)cc3)C[C@@]12C`, for which the Ratio with A549 amounted to 0.17. At Glucocorticoid receptor, the Ki was 56.3 nM. For the same compound, the IC50 on Progesterone receptor was found to be 9.9 nM.

`C=CC[C@]1(O)CC[C@H]2[C@@H]3CCC4=CC(=O)CCC4=C3[C@@H](c3ccc(P(=O)(OCC)OCC)cc3)C[C@@]21C`: the Ratio with A549 amounted to 30.8. For the same compound, on Glucocorticoid receptor, the Ki was found to be 10 nM. The IC50 on Progesterone receptor is 308 nM. Besides, the Papp in series [1] was 14.5 ×10⁻⁶ cm/s.

`C=C1CCO[C@]12CC[C@H]1[C@@H]3CCC4=CC(=O)CCC4=C3[C@@H](c3ccc(P(=O)(O)OCC)cc3)C[C@@]12C`: the Ki at Glucocorticoid receptor was over 3000 nM. At Progesterone receptor, the IC50 was over 1000 nM.

As for `C=CC[C@]1(O)CC[C@H]2[C@@H]3CCC4=CC(=O)CCC4=C3[C@@H](c3ccc(P(=O)(c4ccccc4)c4ccccc4)cc3)C[C@@]21C`, the figures for the Cmax in [2] and in series [12] were 5290 ng/mL and 1850 ng/mL, respectively. Moreover, the half-life in [3] was 30 min; in [4] it was 132 min; in series [5] it was over 30 min; in [6] it was 21 min; in series [7] it was 46.2 min; in [10], over 30 min. For the same compound, the values for the half-life in series [13] and in series [15] were 8 min and 28 min, respectively. In addition, the Ratio in the series on A549 worked out at 76.3. Further, the Ki at Glucocorticoid receptor turned out to be 10 nM. Further, at Progesterone receptor, the IC50 turned out to be 763 nM. Also, the results for the Tmax in series [8] and in series [11] were 4.8 min and 120 min, respectively. For the same compound, the result with Mus musculus was Active. This compound had a clearance in series [9] of 7.98 mL/min/kg. The Papp in series [1] is 2.6 ×10⁻⁶ cm/s. In addition, in series [14], the bioavailability came to 59%. Besides, testing at 10 µM on hERG (KCNH2) gave an inhibition of 27.8%.

Consider `C=C1CCO[C@]12CC[C@H]1[C@@H]3CCC4=CC(=O)CCC4=C3[C@@H](c3ccc(P(C)(=O)O)cc3)C[C@@]12C`, for which the Ki at Glucocorticoid receptor was over 3000 nM. Further, the IC50 on Progesterone receptor was over 1000 nM.

With `CC#C[C@]1(O)CC[C@H]2[C@@H]3CCC4=CC(=O)CCC4=C3[C@@H](c3ccc(N(C)C)cc3)C[C@@]21C` [MIFEPRISTONE], the results for the Cmax in series [2] and in series [12] were 2800 ng/mL and 30 ng/mL, respectively. For the same compound, the half-life in series [4] was 168 min; in series [7], 240 min. The Tmax in [8] stood at 4.8 min; in series [11] it was 60 min. The result with Mus musculus was Active. Moreover, the clearance in [9] is 115 mL/min/kg. For the same compound, in series [14], the bioavailability stood at 31%.

Consider `C=C1CCO[C@]12CC[C@H]1[C@@H]3CCC4=CC(=O)CCC4=C3[C@@H](c3ccc(P(C)(=O)OCC)cc3)C[C@@]12C` (stereo not given in full), for which the Ratio in the series with A549 stood at 0.027. Also, the Ki at Glucocorticoid receptor is 59.8 nM. For the same compound, the IC50 at Progesterone receptor came out at 1.6 nM.

In the case of `C[C@]12C[C@H](c3ccc(P(=O)(c4ccccc4)c4ccccc4)cc3)C3=C4CCC(=O)C=C4CC[C@H]3[C@@H]1CC[C@@]2(O)c1ccccc1`, the Ratio with A549 came to 13.8. Moreover, at Glucocorticoid receptor, the Ki is 20 nM. The IC50 at Progesterone receptor stood at 275 nM.

For `CC#C[C@]1(O)CC[C@H]2[C@@H]3CCC4=CC(=O)CCC4=C3[C@@H](c3ccc(P(C)(C)=O)cc3)C[C@@]21C`, in the series on A549, the Ratio was determined as 10.1. The half-inhibitory concentration (IC50) was found to be 10 nM at Glucocorticoid receptor and 101 nM at Progesterone receptor.
